Laboratory results from ChEMBL document CHEMBL5212743, “Selectivity Literature for EUbOPEN Chemogenomics Library wave 3” (2023).
pIC50, pKd: −log10 of the molar value. Values belong to the compound of their own block, whether it stands above or below them.

Tests used:
[1] = molecular target: T1, Serine/threonine-protein kinase TAO3 (Homo sapiens) (UniProt Q9H2K8); test: Selectivity interaction (KinomeScan (DiscoverX)) EUB0000305b TAOK3; details: CellTiter-Glo assay (Promega, proliferation in ACHN cells): IC50 = […] nM, https://www.sgc-ffm.uni-frankfurt.de/#!specificprobeove, at 100 nM
T1 sequence (whole entry): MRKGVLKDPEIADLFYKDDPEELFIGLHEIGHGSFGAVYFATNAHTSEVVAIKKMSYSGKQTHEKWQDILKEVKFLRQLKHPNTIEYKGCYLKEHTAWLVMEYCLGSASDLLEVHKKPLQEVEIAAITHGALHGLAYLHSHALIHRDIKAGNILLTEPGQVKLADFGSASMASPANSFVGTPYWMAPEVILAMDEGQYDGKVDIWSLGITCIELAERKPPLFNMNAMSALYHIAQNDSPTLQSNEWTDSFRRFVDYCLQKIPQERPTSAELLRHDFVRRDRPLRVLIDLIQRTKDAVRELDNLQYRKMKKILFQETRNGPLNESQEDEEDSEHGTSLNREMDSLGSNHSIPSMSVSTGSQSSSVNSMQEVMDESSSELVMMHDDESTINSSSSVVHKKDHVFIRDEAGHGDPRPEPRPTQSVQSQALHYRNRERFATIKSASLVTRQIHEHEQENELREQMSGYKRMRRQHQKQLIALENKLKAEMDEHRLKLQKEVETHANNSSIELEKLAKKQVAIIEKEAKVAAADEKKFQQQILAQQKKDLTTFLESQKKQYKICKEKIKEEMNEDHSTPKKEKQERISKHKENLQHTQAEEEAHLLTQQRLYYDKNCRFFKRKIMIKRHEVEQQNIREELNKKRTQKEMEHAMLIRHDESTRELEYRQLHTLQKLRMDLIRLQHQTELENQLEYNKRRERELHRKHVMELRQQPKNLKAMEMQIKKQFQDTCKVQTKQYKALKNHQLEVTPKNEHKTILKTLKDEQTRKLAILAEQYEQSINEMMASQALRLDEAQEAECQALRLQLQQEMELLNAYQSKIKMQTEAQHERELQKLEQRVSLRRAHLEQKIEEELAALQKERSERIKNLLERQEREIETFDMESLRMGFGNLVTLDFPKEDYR

[2] = tested on: Phosphatidylinositol 4,5-bisphosphate 3-kinase catalytic subunit alpha isoform (Homo sapiens), P42336 [Q546K]; test: Selectivity interaction (KinomeScan (DiscoverX)) EUB0000305b PIK3CA; details: CellTiter-Glo assay (Promega, proliferation in ACHN cells): IC50 = […] nM, https://www.sgc-ffm.uni-frankfurt.de/#!specificprobeove, at 100 nM
[3] = molecular target: T2, Serine/threonine-protein kinase 17A (Homo sapiens, UniProt Q9UEE5); test: Selectivity interaction (KinomeScan (DiscoverX, competition-binding assay)) EUB0000305b STK17A
[4] = molecular target: T2, Serine/threonine-protein kinase 17A; test: Selectivity interaction (NanoBRET assay (HEK293T cells)) EUB0000305b STK17A
[5] = molecular target: T3, Ephrin type-B receptor 6 (Homo sapiens) (UniProt O15197); test: Selectivity interaction (KinomeScan (DiscoverX)) EUB0000698a EPHB6; details: at 10 µM
T3 sequence (whole entry): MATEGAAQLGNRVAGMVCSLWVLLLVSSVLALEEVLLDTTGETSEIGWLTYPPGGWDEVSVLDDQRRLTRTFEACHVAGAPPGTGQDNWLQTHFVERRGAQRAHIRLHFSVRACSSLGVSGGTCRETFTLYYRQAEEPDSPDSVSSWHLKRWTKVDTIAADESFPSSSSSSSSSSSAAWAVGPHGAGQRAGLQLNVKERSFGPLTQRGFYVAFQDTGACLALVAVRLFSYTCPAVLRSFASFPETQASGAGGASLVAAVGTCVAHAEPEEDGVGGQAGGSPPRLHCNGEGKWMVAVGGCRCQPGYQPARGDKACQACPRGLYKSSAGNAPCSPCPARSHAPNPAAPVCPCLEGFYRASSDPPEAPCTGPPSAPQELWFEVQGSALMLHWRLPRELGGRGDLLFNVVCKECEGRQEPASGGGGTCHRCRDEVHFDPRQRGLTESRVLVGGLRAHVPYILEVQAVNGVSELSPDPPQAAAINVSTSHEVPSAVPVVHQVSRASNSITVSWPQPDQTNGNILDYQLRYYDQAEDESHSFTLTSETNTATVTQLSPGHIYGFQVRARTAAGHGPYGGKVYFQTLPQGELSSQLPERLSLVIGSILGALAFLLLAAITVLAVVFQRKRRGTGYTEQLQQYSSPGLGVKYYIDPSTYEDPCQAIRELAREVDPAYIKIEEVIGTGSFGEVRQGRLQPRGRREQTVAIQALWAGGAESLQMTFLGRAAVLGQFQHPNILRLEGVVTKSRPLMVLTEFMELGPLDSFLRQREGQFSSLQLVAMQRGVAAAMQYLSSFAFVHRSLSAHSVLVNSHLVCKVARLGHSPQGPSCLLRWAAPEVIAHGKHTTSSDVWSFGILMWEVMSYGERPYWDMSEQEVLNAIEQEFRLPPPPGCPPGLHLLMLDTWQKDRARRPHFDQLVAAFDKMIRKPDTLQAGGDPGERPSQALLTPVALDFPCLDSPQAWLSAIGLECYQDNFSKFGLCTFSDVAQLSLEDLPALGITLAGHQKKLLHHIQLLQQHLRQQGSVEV

[6] = molecular target: Tyrosine-protein kinase CSK (Homo sapiens) (UniProt P41240); test: Selectivity interaction (Kinase panel (University of Dundee)) EUB0000169b CSK; details: at 10 µM
[7] = molecular target: Serine/threonine-protein kinase TAO1 (Homo sapiens) (UniProt Q7L7X3); test: Selectivity interaction (KinomeScan (DiscoverX)) EUB0000178b TAOK1; details: at 1 µM
[8] = molecular target: T4, Phosphatidylinositol 5-phosphate 4-kinase type-2 beta (Homo sapiens) (UniProt P78356); test: Selectivity interaction (KinomeScan (DiscoverX)) EUB0000702a PIP4K2B; details: at 1 µM
T4 sequence (whole entry): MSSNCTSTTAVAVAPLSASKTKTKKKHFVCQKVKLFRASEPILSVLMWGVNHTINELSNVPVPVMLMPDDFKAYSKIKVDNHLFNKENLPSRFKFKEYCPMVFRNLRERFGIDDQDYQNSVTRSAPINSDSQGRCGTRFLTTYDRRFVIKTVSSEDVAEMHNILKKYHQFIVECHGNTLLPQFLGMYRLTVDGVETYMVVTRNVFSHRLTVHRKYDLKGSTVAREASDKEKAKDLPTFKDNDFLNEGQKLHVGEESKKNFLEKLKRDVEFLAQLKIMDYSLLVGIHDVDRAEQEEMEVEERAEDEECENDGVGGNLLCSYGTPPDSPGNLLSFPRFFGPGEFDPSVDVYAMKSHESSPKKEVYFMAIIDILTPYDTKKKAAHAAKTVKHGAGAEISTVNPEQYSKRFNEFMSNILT

Aurora kinase B = Aurora kinase B (Homo sapiens, UniProt Q96GD4); test: Selectivity interaction (KinomeScan (DiscoverX)) EUB0000702a AURKB; details: at 1 µM
[9] = molecular target: Dual specificity protein kinase CLK4 (Homo sapiens) (UniProt Q9HAZ1); test: Selectivity interaction (KinomeScan (DiscoverX)) EUB0000702a CLK4; details: at 1 µM
Chain of Dual specificity protein kinase CLK4 (Homo sapiens) (Q9HAZ1 whole entry, looked up): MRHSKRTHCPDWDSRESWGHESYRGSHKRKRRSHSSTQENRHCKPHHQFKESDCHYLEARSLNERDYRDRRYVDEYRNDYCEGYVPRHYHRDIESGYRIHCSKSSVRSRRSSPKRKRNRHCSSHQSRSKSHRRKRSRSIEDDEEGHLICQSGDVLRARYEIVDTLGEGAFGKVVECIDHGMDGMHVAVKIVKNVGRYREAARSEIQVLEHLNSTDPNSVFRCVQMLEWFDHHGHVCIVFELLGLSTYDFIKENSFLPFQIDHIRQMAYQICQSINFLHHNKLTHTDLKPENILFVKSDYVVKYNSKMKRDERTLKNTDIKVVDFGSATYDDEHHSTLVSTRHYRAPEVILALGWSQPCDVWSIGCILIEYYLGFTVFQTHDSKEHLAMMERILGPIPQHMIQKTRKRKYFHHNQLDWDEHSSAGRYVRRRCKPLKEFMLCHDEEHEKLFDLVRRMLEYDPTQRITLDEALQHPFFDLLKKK

T2 sequence (Q9UEE5 whole entry): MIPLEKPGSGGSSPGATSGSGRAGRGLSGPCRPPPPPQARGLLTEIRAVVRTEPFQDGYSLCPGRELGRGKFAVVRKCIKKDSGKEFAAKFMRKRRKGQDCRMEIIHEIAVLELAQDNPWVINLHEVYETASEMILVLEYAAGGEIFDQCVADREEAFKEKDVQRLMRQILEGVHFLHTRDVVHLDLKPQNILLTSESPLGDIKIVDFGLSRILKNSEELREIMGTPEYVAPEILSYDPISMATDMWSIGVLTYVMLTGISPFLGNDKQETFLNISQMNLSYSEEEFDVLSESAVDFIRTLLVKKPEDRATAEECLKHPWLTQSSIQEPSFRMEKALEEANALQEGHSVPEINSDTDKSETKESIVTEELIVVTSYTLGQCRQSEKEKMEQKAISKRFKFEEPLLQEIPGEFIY
Chain of Aurora kinase B (Q96GD4 whole entry): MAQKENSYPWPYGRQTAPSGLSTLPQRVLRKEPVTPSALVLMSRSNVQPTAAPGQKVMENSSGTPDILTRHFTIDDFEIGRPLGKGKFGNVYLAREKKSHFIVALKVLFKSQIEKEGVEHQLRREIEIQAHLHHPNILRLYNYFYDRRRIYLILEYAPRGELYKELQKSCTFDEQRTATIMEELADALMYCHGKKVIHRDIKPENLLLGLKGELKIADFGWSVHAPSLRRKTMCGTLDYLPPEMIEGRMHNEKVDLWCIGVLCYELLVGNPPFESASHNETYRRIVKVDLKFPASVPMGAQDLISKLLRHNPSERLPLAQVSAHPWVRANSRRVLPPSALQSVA
Chain of Phosphatidylinositol 4,5-bisphosphate 3-kinase catalytic subunit alpha isoform (Homo sapiens), P42336 [Q546K] (P42336 whole entry Q546K, canonical isoform): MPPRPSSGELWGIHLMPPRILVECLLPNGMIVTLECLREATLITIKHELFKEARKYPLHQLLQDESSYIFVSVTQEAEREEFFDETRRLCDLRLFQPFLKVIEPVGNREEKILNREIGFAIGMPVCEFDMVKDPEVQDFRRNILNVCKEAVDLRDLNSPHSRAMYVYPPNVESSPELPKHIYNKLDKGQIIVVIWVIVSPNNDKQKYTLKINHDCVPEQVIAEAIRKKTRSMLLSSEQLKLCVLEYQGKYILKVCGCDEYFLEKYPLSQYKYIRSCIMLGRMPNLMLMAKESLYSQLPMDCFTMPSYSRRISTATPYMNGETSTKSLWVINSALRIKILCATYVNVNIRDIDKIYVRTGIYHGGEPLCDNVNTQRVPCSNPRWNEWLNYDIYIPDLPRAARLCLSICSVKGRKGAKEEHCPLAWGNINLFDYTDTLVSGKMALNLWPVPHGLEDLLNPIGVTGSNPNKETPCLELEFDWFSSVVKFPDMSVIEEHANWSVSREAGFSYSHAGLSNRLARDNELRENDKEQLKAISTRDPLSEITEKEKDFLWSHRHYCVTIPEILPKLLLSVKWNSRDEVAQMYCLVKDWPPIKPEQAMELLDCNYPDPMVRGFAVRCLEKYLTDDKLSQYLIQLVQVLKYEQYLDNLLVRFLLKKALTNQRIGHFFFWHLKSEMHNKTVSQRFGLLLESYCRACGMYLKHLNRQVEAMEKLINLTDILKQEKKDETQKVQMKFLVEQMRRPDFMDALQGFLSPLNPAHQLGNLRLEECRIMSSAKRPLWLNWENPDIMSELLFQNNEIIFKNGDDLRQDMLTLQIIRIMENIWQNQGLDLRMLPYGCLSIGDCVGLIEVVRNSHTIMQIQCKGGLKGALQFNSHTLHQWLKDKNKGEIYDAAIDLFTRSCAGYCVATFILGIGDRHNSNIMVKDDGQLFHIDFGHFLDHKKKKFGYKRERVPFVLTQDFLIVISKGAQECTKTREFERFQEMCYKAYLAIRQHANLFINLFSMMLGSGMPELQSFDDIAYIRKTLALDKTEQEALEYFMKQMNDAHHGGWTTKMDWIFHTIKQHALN
Chain of Tyrosine-protein kinase CSK (Homo sapiens) (P41240 2-450 limits assumed): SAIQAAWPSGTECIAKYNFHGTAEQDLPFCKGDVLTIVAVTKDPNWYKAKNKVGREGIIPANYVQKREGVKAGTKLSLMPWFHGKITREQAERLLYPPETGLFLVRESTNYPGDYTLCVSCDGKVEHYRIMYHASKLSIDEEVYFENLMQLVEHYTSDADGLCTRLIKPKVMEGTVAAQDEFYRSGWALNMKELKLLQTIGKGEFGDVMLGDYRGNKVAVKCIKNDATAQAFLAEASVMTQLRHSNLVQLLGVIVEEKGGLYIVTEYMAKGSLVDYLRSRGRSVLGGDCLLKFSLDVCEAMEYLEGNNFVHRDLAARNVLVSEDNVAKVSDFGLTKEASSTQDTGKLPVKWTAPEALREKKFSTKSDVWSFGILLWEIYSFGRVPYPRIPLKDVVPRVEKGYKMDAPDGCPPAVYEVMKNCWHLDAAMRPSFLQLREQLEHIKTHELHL
Chain of Serine/threonine-protein kinase TAO1 (Homo sapiens) (Q7L7X3 whole entry): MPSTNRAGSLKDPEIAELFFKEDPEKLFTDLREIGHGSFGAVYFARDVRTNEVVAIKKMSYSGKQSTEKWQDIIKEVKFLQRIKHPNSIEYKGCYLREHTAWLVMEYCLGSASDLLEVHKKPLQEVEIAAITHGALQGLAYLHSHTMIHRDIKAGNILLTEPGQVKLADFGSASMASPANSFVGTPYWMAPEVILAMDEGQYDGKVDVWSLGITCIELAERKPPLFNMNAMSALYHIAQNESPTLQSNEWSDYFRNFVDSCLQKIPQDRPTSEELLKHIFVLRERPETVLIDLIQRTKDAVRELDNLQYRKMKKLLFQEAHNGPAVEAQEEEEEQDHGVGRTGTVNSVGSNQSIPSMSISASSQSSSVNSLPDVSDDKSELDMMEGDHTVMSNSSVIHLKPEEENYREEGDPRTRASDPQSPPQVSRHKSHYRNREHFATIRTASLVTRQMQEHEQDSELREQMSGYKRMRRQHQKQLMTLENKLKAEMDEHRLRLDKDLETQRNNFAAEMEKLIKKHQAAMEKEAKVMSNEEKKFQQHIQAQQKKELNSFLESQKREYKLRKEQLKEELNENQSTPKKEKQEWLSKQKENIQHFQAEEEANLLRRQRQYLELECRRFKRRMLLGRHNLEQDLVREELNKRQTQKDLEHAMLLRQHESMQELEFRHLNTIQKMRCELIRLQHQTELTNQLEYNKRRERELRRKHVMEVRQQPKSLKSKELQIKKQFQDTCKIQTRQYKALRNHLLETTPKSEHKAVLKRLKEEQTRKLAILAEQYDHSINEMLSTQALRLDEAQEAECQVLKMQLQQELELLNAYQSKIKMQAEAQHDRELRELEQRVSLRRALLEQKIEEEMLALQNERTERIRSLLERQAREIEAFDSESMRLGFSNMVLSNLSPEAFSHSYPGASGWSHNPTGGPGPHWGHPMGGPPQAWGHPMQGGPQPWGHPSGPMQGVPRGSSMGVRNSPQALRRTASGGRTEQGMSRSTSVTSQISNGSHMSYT

% of control [1]: 41% | % of control [2]: 45% | pKd [3]: 7.13 | pIC50 [4]: < 4.70
Structure (SMILES): C[C@H](c1ccnc(Nc2nc3ccc(-c4cc(N(C)C)ncn4)cc3[nH]2)c1)N1CCN(C(=O)CC(F)(F)F)CC1 [BAY-985]

% of control [5]: 9.9%
Structure (SMILES): COc1cc2ncn(-c3cc(OCc4ccccc4C(F)(F)F)c(C(N)=O)s3)c2cc1OC [GW843682X]

% of control [6]: 99%
Structure (SMILES): CC[C@@H]1C(=O)N(C)c2cnc(Nc3ccc(C(=O)NC4CCN(C)CC4)cc3OC)nc2N1C1CCCC1

% of control [7]: 2.6%
Structure (SMILES): CN1C(=O)c2sccc2N(C)c2nc(Nc3ccc(S(N)(=O)=O)cc3)ncc21

% of control [8]: 4.8% | % of control (Aurora kinase B): 9.9% | % of control [9]: 1.4%
Structure (SMILES): CN(c1ccnc(CNc2nc(Nc3ccc4c(c3)CC(=O)N4)ncc2C(F)(F)F)n1)S(C)(=O)=O [PF-00911705]
